From US11753603B2, “Acidic cleaning and disinfecting compositions comprising a citric/methansulfonic acid mixture” (THE CLOROX COMPANY, priority 2020, dated 2023) come the findings set out here.

The structures appear in SMILES notation.

The experiment concerns bacterial population. Briefly: Suspension test (kill in 10 minutes). Conditions: 0.1% citric acid alone. How it is done: Formula A of Table I includes addition of LAE (0.1%) plus APG (1.0%) and enables the use of citric acid levels as low at 0.1% with complete kill in suspension test in 10 minutes.

Turning to `O=C(O)CC(O)(CC(=O)O)C(=O)O` [citric acid], the “kill in suspension test” value is listed as “little or no kill”.
